Calls of active or inactive are those of the source. The calls are words filed in the database; no cut-off is given here.
Experiments:
[1] = target: Metabotropic glutamate receptor 1 (Homo sapiens) (UniProt Q13255); experiment: Agonist activity at mGluR1 expressed in CHO cells assessed as stimulation of phosphatidyl inositol hydrolysis at 10 uM; format: functional, cell-based
[2] = target: Metabotropic glutamate receptor 1 (Homo sapiens) (UniProt Q13255); experiment: Antagonist activity at mGluR1 expressed in CHO cells assessed as inhibition of glutamate stimulated phosphatidyl inositol hydrolysis at 10 uM; format: functional, cell-based
[3] = target: Metabotropic glutamate receptor 2 (Homo sapiens) (UniProt Q14416); experiment: Agonist activity at mGluR2 expressed in CHO cells assessed as decrease in cAMP accumulation at 10 uM; format: functional, cell-based; set-up: scale not given: the % may be the effect or the level left
Metabotropic glutamate receptor 2 (Homo sapiens), sequence (Q14416 19-872 limits assumed): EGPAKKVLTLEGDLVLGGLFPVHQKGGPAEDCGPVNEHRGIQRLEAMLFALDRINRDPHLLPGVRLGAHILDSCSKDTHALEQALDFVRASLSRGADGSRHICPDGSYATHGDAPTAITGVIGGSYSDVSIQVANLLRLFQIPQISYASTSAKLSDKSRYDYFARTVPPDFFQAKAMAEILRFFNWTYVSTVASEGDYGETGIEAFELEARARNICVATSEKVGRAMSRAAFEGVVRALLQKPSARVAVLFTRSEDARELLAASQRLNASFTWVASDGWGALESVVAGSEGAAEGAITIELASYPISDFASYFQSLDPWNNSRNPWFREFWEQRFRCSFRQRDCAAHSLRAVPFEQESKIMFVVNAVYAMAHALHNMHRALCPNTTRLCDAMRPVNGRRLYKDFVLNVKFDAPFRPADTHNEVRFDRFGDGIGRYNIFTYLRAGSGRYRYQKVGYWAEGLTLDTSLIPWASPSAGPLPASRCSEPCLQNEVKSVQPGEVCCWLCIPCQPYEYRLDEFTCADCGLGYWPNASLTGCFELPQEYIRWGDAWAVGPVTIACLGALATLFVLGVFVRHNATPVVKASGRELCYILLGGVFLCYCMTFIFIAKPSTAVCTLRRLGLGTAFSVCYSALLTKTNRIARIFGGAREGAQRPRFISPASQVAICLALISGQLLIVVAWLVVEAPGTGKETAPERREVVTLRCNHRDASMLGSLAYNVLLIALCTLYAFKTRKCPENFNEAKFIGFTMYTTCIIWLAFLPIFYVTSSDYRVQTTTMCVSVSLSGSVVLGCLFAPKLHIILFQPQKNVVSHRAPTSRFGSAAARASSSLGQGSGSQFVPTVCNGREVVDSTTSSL

[4] = target: Metabotropic glutamate receptor 2 (Homo sapiens) (UniProt Q14416); experiment: Antagonist activity at mGluR2 expressed in CHO cells assessed as inhibition of forskolin stimulated cAMP accumulation at 10 uM; format: functional, cell-based
[5] = target: Metabotropic glutamate receptor 6 (Homo sapiens) (UniProt O15303); experiment: Agonist activity at mGluR6 expressed in CHO cells assessed as decrease in cAMP accumulation at 10 uM; format: functional, cell-based; set-up: scale not given: the % may be the effect or the level left
Metabotropic glutamate receptor 6 (Homo sapiens), sequence (O15303 whole entry): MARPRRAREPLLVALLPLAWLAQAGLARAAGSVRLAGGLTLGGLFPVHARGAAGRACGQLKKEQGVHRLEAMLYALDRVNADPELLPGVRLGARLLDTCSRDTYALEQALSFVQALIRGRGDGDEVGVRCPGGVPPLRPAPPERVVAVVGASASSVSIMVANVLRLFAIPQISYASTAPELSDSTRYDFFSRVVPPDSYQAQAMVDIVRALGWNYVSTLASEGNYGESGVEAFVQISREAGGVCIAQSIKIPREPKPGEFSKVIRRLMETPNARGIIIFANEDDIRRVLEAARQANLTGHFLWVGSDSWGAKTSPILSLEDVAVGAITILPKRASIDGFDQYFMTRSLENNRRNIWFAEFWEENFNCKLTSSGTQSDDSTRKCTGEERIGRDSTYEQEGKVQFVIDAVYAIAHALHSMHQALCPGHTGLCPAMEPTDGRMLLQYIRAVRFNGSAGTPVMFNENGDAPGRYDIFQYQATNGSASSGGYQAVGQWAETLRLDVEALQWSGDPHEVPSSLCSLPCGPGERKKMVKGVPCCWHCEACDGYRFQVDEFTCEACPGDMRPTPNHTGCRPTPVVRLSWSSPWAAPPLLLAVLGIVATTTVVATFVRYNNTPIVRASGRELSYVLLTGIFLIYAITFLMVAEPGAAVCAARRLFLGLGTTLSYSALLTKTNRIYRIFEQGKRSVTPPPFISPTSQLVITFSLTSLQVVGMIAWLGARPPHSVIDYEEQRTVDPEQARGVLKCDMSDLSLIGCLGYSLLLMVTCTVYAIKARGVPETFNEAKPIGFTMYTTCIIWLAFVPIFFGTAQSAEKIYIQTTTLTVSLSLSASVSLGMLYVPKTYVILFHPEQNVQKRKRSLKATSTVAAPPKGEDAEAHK

[6] = target: Metabotropic glutamate receptor 6 (Homo sapiens) (UniProt O15303); experiment: Antagonist activity at mGluR6 expressed in CHO cells assessed as inhibition of forskolin stimulated cAMP accumulation at 10 uM; format: functional, cell-based
[7] = target: T1, 5-hydroxytryptamine receptor 1A (Rattus norvegicus, UniProt P19327); experiment: Displacement of [3H]8-OH-DPAT from 5HT1A receptor in rat cortex membrane; format: cell membranes
T1 sequence (P19327 whole entry): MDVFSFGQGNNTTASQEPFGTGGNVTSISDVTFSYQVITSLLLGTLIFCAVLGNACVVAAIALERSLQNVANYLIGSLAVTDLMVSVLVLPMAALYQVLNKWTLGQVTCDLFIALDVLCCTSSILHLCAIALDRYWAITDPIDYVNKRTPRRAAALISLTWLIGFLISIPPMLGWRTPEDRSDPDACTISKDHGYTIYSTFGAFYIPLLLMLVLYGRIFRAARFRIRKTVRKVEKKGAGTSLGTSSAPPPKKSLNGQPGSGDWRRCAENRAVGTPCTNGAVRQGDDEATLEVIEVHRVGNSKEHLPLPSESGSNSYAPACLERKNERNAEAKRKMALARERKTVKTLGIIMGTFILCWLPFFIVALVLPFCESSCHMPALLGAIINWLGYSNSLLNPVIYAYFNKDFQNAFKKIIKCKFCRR

[8] = target: 5-hydroxytryptamine receptor 2A (Rattus norvegicus, UniProt P14842); experiment: Displacement of [3H]ketanserin from 5HT2A receptor in rat cortex membrane; format: cell membranes
5-hydroxytryptamine receptor 2A, sequence (P14842 whole entry): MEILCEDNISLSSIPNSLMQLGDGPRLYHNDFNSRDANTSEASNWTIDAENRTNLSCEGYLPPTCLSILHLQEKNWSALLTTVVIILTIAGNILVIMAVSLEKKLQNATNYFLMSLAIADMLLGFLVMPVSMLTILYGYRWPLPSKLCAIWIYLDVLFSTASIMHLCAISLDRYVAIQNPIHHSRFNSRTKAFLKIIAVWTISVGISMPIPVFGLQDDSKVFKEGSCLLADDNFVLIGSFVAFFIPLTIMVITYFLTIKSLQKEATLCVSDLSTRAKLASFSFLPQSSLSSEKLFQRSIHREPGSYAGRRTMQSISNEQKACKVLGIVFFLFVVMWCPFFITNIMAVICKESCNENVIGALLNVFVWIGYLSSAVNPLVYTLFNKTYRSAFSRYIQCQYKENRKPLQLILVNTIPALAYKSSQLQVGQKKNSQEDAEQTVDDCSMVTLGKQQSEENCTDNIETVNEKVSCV

[9] = target: Sodium-dependent serotonin transporter (Homo sapiens, UniProt P31645); format: cell membranes
Sodium-dependent serotonin transporter, sequence (P31645 whole entry): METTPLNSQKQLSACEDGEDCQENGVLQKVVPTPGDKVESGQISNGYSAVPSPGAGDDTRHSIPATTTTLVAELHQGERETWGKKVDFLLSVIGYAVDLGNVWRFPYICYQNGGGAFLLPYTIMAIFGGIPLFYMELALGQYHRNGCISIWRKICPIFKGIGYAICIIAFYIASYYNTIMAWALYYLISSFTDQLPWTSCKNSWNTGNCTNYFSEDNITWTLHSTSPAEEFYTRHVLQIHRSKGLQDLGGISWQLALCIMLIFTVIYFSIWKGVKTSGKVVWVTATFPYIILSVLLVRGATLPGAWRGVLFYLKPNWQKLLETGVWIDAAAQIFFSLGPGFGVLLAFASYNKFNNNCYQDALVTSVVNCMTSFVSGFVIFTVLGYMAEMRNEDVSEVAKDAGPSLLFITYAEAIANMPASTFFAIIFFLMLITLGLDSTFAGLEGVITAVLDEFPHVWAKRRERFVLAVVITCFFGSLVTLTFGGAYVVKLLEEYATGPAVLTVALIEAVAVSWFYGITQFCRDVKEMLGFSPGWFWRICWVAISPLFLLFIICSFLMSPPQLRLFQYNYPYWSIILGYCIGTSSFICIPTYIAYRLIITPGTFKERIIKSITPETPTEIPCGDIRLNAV

[10] = target: Metabotropic glutamate receptor 2 (Homo sapiens) (UniProt Q14416); experiment: Antagonist activity at mGluR2 expressed in CHO cells assessed as inhibition of glutamate-induced cAMP accumulation at 10 uM; format: functional, cell-based
[11] = target: Metabotropic glutamate receptor 6 (Homo sapiens) (UniProt O15303); experiment: Antagonist activity at mGluR6 expressed in CHO cells assessed as inhibition of AP4-induced cAMP accumulation at 10 uM; format: functional, cell-based

Metabotropic glutamate receptor 1 (Homo sapiens), sequence (Q13255 19-1194 limits assumed): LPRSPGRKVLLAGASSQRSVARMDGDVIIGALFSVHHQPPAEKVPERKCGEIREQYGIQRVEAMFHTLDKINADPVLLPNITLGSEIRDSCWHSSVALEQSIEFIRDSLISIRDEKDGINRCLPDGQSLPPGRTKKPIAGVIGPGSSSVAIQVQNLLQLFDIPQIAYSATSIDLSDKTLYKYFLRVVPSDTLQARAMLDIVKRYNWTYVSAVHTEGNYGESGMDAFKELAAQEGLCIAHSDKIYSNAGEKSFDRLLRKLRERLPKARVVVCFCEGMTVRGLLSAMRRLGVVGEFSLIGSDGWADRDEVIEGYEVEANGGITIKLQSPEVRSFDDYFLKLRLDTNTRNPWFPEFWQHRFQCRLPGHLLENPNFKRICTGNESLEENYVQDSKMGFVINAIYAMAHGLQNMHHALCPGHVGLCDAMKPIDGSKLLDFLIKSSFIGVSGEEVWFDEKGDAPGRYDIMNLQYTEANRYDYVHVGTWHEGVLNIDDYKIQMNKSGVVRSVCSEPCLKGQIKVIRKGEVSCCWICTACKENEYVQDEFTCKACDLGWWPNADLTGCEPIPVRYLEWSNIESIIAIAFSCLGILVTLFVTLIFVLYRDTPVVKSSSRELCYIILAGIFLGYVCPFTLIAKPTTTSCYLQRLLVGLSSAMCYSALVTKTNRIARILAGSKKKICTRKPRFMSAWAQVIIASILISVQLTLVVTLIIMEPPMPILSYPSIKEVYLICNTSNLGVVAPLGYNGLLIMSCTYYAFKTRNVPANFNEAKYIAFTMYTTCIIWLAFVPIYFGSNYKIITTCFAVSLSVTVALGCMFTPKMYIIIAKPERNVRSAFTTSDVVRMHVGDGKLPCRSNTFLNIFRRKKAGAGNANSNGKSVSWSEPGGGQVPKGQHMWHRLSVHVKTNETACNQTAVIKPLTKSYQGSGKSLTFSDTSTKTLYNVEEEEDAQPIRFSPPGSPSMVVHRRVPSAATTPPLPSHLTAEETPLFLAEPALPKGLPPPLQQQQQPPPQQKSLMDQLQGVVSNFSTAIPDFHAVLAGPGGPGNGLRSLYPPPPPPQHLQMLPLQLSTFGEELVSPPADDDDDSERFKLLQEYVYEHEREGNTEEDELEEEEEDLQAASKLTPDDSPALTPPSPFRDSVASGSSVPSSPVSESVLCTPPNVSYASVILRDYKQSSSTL

Structure (SMILES) | Activity [1] | Activity [2] | Activity [3] | Activity [4] | Activity [5] | Activity [6] | Ki [7] | Ki [8] | Ki [9] | Activity [10] | Activity [11]
N[C@]1(C(=O)O)C[C@@H](C(=O)O)C[C@H]1C(=O)O | inactive | inactive | inactive | inactive | inactive | inactive | > 50 µM | > 50 µM | 10 µM | inactive | inactive
N[C@@]1(C(=O)O)C[C@@H](C(=O)O)C[C@H]1C(=O)O | inactive | inactive | 30% |  | 30% |  | > 50 µM | > 50 µM | > 50 µM | inactive | inactive
N[C@@]1(C(=O)O)C[C@H](C(=O)O)C[C@@H]1C(=O)O | inactive | inactive | inactive | inactive | inactive | inactive | > 50 µM | > 50 µM | > 50 µM | inactive | inactive
N[C@]1(C(=O)O)C[C@H](C(=O)O)C[C@@H]1C(=O)O | inactive | inactive | inactive | inactive | inactive | inactive | > 50 µM | > 50 µM | > 50 µM | inactive | inactive
